Measured values: patent US10118901B2 (priority 2013, dated 2018)

How the values were obtained:
Type in all cases: cell-based, human
LOX IMVI = test: NCI-60 screen at 10 μM: LOX IMVI; conditions: Melanoma LOX IMVI; 10 μM single dose; 48 hrs
Description: (§1) NL-101 and CY-102 was sent to U.S. National Cancer Institute (NCI) for NCI 60-cell line screening using a single compound dose (10 μM).
(§2) The human tumor cell lines of the cancer screening panel were grown in RPMI 1640 medium containing 5% fetal bovine serum (5% FBS) and 2 mM L-glutamine. For a typical screening experiment, cells were inoculated into 96-well microtiter plates in 100 μL, at plating densities ranging from 5,000 to 40,000 cells/well depending on the doubling time of individual cell lines. After cell inoculation, the microtiter plates were incubated at 37° C., 5% CO2, 95% air, and 100% relative humidity for 24 h prior to addition of experimental compounds. […]
(§3) Following drug addition, the plates were incubated for an additional 48 hrs at 37° C., 5% CO2, 95% air, and 100% relative humidity. […] Bound stain was subsequently solubilized with 10 mM trizma base, and the absorbance was read on an automated plate reader at a wavelength of 515 nm. […]
(§4) Using the seven absorbance measurements [time zero, (Tz), control growth, (C), and test growth in the presence of drug at the 10 μM concentration levels (Ti)], percentage growth was calculated at each of the drug concentrations levels. Percentage growth inhibition was calculated as: [(Ti−Tz)/(C−Tz)]×100 for which Ti>/=Tz or [(Ti−Tz)/Tz]×100 for which Ti<Tz.

HCT-15 = test: NCI-60 screen at 10 μM: HCT-15; conditions: Colon Cancer HCT-15; 10 μM single dose; 48 hrs
Description: as §1, §2, §3, §4

T-47D = test: NCI-60 screen at 10 μM: T-47D; conditions: Breast Cancer T-47D; 10 μM single dose; 48 hrs
Description: as §1, §2, §3, §4

SK-MEL-5 = test: NCI-60 screen at 10 μM: SK-MEL-5; conditions: Melanoma SK-MEL-5; 10 μM single dose; 48 hrs
Description: as §1, §2, §3, §4

SF-268 = test: NCI-60 screen at 10 μM: SF-268; conditions: CNS Cancer (Glioma) SF-268; 10 μM single dose; 48 hrs
Description: as §1, §2, §3, §4

OVCAR-4 = test: NCI-60 screen at 10 μM: OVCAR-4; conditions: Ovarian Cancer OVCAR-4; 10 μM single dose; 48 hrs
Description: as §1, §2, §3, §4

NCI-H460 = test: NCI-60 screen at 10 μM: NCI-H460; conditions: NSCLC NCI-H460; 10 μM single dose; 48 hrs
Description: as §1, §2, §3, §4

SK-MEL-28 = test: NCI-60 screen at 10 μM: SK-MEL-28; conditions: Melanoma SK-MEL-28; 10 μM single dose; 48 hrs
Description: as §1, §2, §3, §4

HOP-62 = test: NCI-60 screen at 10 μM: HOP-62; conditions: NSCLC HOP-62; 10 μM single dose; 48 hrs
Description: as §1, §2, §3, §4

OVCAR-8 = test: NCI-60 screen at 10 μM: OVCAR-8; conditions: Ovarian Cancer OVCAR-8; 10 μM single dose; 48 hrs
Description: as §1, §2, §3, §4

SK-OV-3 = test: NCI-60 screen at 10 μM: SK-OV-3; conditions: Ovarian Cancer SK-OV-3; 10 μM single dose; 48 hrs
Description: as §1, §2, §3, §4

MALME-3M = test: NCI-60 screen at 10 μM: MALME-3M; conditions: Melanoma MALME-3M; 10 μM single dose; 48 hrs
Description: as §1, §2, §3, §4

HS 578T = test: NCI-60 screen at 10 μM: HS 578T; conditions: Breast Cancer HS 578T; 10 μM single dose; 48 hrs
Description: as §1, §2, §3, §4

SK-MEL-2 = test: NCI-60 screen at 10 μM: SK-MEL-2; conditions: Melanoma SK-MEL-2; 10 μM single dose; 48 hrs
Description: as §1, §2, §3, §4

CAKI-1 = test: NCI-60 screen at 10 μM: CAKI-1; conditions: Renal Cancer CAKI-1; 10 μM single dose; 48 hrs
Description: as §1, §2, §3, §4

TK-10 = test: NCI-60 screen at 10 μM: TK-10; conditions: Renal Cancer TK-10; 10 μM single dose; 48 hrs
Description: as §1, §2, §3, §4

SR = test: NCI-60 screen at 10 μM: SR; conditions: Leukemia SR; 10 μM single dose; 48 hrs
Description: as §1, §2, §3, §4

HCT-116 = test: NCI-60 screen at 10 μM: HCT-116; conditions: Colon Cancer HCT-116; 10 μM single dose; 48 hrs
Description: as §1, §2, §3, §4

SNB-19 = test: NCI-60 screen at 10 μM: SNB-19; conditions: CNS Cancer (Glioma) SNB-19; 10 μM single dose; 48 hrs
Description: as §1, §2, §3, §4

MDA-MB-231 = test: NCI-60 screen at 10 μM: MDA-MB-231; conditions: Breast Cancer MDA-MB-231; 10 μM single dose; 48 hrs
Description: as §1, §2, §3, §4

M14 = test: NCI-60 screen at 10 μM: M14; conditions: Melanoma M14; 10 μM single dose; 48 hrs
Description: as §1, §2, §3, §4

BT-549 = test: NCI-60 screen at 10 μM: BT-549; conditions: Breast Cancer BT-549; 10 μM single dose; 48 hrs
Description: as §1, §2, §3, §4

ACHN = test: NCI-60 screen at 10 μM: ACHN; conditions: Renal Cancer ACHN; 10 μM single dose; 48 hrs
Description: as §1, §2, §3, §4

NCI-H226 = test: NCI-60 screen at 10 μM: NCI-H226; conditions: NSCLC NCI-H226; 10 μM single dose; 48 hrs
Description: as §1, §2, §3, §4

Compound | Growth % (LOX IMVI) [%] | Growth % (HCT-15) [%] | Growth % (T-47D) [%] | Growth % (SK-MEL-5) [%] | Growth % (SF-268) [%] | Growth % (OVCAR-4) [%] | Growth % (NCI-H460) [%] | Growth % (SK-MEL-28) [%] | Growth % (HOP-62) [%] | Growth % (OVCAR-8) [%] | Growth % (SK-OV-3) [%] | Growth % (MALME-3M) [%] | Growth % (HS 578T) [%] | Growth % (SK-MEL-2) [%] | Growth % (CAKI-1) [%] | Growth % (TK-10) [%] | Growth % (SR) [%] | Growth % (HCT-116) [%] | Growth % (SNB-19) [%] | Growth % (MDA-MB-231) [%] | also measured
Cn1c(CCCCCCC(=O)NO)nc2cc(N(CCCl)CCCl)ccc21 [NL-101] | −23.43 | 76.48 | −16.57 | −6.55 | 10.27 | 68.52 | 25.56 | 59.32 | 13.56 | 32.65 | 34.40 | 28.59 | 24.01 | 37.31 | 27.64 | 48.48 | 29.62 | 23.73 | 55.62 | 72.24 | Growth % (M14): 39.93%; Growth % (BT-549): 79.21%; Growth % (ACHN): 14.30%; Growth % (NCI-H226): 60.27%
Cn1c(CCNCc2ccc(/C=C/C(=O)NO)cc2)nc2cc(N(CCCl)CCCl)ccc21 [CY-102] | −26.41 | 9.96 | −27.48 | −79.31 | −31.46 | −19.00 | 2.61 | −21.36 | −30.02 | −26.88 | −41.53 | −64.17 | 8.17 | −21.36 | −25.49 | −28.81 | 0.09 | −1.84 | −10.81 | −35.33 | Growth % (M14): −76.75%; Growth % (BT-549): −33.26%; Growth % (ACHN): −19.97%; Growth % (NCI-H226): −20.77%
